Data reported in publication PMC10860121 (ACS infectious diseases, 2023).

Tests used:
[1] = tested on: Chloroquine-sensitive NF54 P. falciparum isolate; assay: In vitro antiplasmodial activity, NF54; format: cell-based, Plasmodium falciparum; conditions: for IC50: Plasmodium falciparum, NF54, read-out: P. falciparum IC50, NF54, mean from n ≥ 2
[2] = In vitro intrinsic clearance in human liver microsomes; format: in vitro ADME; conditions: human, liver microsomes, h CLint
Chromatographic LogD7.4 = format: physicochemical; conditions: gradient HPLC, Phenomenex Synergi Hydro-RP column, pH 7.4
[3] = In vitro intrinsic clearance in mouse liver microsomes; format: in vitro ADME

Structure (SMILES) | IC50 [1] | fold less potent than 2 (antiplasmodial) ([1]; relative to compound 2) | microsomal CLint [2] | chromatographic logD (Chromatographic LogD7.4) | microsomal CLint [3] | fold more potent than 2 (antiplasmodial) ([1]; relative to compound 2)
O=C1Nc2ccccc2C(=O)CCCc2ccccc21 [Compound 6, 6,7-Dihydrodibenzo[b,h]azecine-8,14(5H,13H)-dione] | 0.75 µM | 4 fold | 14 µL/min/mg | 1.9 | 31 µL/min/mg | –
O=C1CCc2ccccc2CC(=O)c2ccccc2N1 [Compound 8, 8,13-Dihydrodibenzo[b,f]azecine-6,14(5H,7H)-dione] | 6.2 µM | 33 fold | < 7 µL/min/mg | 2.1 | 18 µL/min/mg | –
O=C1CCc2ccccc2C(=O)c2ccccc2N1 [Compound 9, 7,8-Dihydro-5H-dibenzo[b,e]azonine-6,13-dione] | 4.6 µM | – | 7 µL/min/mg | 1.9 | 14 µL/min/mg | –
O=C1Nc2ccccc2C(=NO)CCc2ccccc21 [Compound 10, 13-(Hydroxyimino)-5,11,12,13-tetrahydro-6H-dibenzo[b,g]azonin-6-one] | > 190 µM | – | 22 µL/min/mg | 1.8 | 76 µL/min/mg | –
CO/N=C1\CCc2ccccc2C(=O)Nc2ccccc21 [Compound 11, (E)-13-(Methoxyimino)-5,11,12,13-tetrahydro-6H-dibenzo[b,g]azonin-6-one] | 95 µM | – | 11 µL/min/mg | 2.5 | 54 µL/min/mg | –
O=C1Nc2ccccc2C(O)CCc2ccccc21 (stereo not drawn) [Compound 12, 13-hydroxy-5,11,12,13-tetrahydro-6H-dibenzo[b,g]azonin-6-one] | 83 µM | – | 11 µL/min/mg | 1.5 | 27 µL/min/mg | –
O=C1Nc2ccccc2CCCc2ccccc21 [Compound 13, 5,11,12,13-Tetrahydro-6H-dibenzo[b,g]azonin-6-one] | 100 µM | – | 62 µL/min/mg | 2.6 | 81 µL/min/mg | –
CN1C(=O)c2ccccc2CCC(=O)c2ccccc21 [Compound 14, 5-Methyl-11,12-dihydro-5H-dibenzo[b,g]azonine-6,13-dione] | 77 µM | – | 110 µL/min/mg | 2.4 | 220 µL/min/mg | –
O=C1Oc2ccccc2C(=O)CCc2ccccc21 [Compound 16, 11,12-Dihydrodibenzo[b,g]oxonine-6,13-dione] | 100 µM | – | 14 µL/min/mg | 3.7 | 16 µL/min/mg | –
COc1ccc2c(c1)C(=O)CCc1ccccc1C(=O)N2 [Compound 17, 2-Methoxy-11,12-dihydro-5H-dibenzo[b,g]azonine-6,13-dione] | 0.037 µM | – | 23 µL/min/mg | 2.1 | 440 µL/min/mg | roughly 5 fold
O=C(O)c1ccc2c(c1)C(=O)CCc1ccccc1C(=O)N2 [Compound 19, 6,13-Dioxo-6,11,12,13-tetrahydro-5H-dibenzo[b,g]-azonine-2-carboxylic Acid] | 160 µM | – | 12 µL/min/mg | < 0 | < 7 µL/min/mg | –
NC(=O)c1ccc2c(c1)C(=O)CCc1ccccc1C(=O)N2 [Compound 20, 6,13-Dioxo-6,11,12,13-tetrahydro-5H-dibenzo[b,g]-azonine-2-carboxamide] | 24 µM | – | < 7 µL/min/mg | 0.8 | 10 µL/min/mg | –
O=C1Nc2ccc(C(=O)N3CCOCC3)cc2C(=O)CCc2ccccc21 [Compound 21, 2-(Morpholine-4-carbonyl)-11,12-dihydro-5H-dibenzo[b,g]azonine-6,13-dione] | 7.8 µM | – | 11 µL/min/mg | 1.3 | 15 µL/min/mg | –
N#Cc1ccc2c(c1)C(=O)CCc1ccccc1C(=O)N2 [Compound 22, 6,13-Dioxo-6,11,12,13-tetrahydro-5H-dibenzo[b,g]-azonine-2-carbonitrile] | 0.7 µM | 3.7 fold | 23 µL/min/mg | 2.1 | 20 µL/min/mg | –
